Several values for one entry are separate records, joined by “and”; a condition that tells them apart may be missing. Equal entries are not always repeated. Strand notation (5' to 3'): a small letter for the sugar, then the base; units joined by * are phosphorothioate-linked, units joined directly phosphodiester-linked; [ ] holds rarer units or linkages, { } end groups; capitals alone tell only the bases. e = 2'-O-(2-methoxyethyl) (MOE); [5mC] = 5-methylcytosine; d = 2'-deoxy (DNA)
How the values were obtained:
[1] = Viscosity of ISIS antisense oligonucleotides, micro-viscometer at 25 °C (Example 47); assay type: physicochemical; details: for Concentration: concentration of the viscosity sample, UV reading at 260 nM at 85° C.; for Viscosity: in water, micro-viscometer at 25° C., at the concentration of the same line
In short: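 Oligonucleotide (32-35 mg) was dissolved in 120 μL water by heating at 50° C, and viscosity was measured by micro-viscometer at 25° C. Concentration was checked by UV at 260 nm at 85° C on a dilution in water. Screening cut-off: >40 cP at 165-185 mg/mL.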

Factor 11 protein = Factor 11 protein in monkey plasma by sandwich ELISA (Example 46); assay type: in vivo, cynomolgus monkeys; details: 25 mg/kg subcutaneously
Procedure: Groups, each consisting of two male and two female monkeys, were injected subcutaneously with 25 mg/kg of ISIS 416850, ISIS 449709, ISIS 445522, ISIS 449710, ISIS 449707, ISIS 449711, ISIS 449708, 416858, and ISIS 445531. Antisense oligonucleotide was administered to the monkeys at 25 mg/kg three times per week for week 1 and 25 mg/kg twice per week for weeks 2 to 8. A control group, consisting of two male and two female monkeys was injected subcutaneously with PBS according to the same dosing regimen. Body weights were taken 14 days and 7 days before the start of treatment and were then measured weekly throughout the treatment period. Blood samples were collected 14 days and 5 days before the start of treatment and subsequently several times during the dosing regimen for PT and aPTT measurements, and measurement of various hematologic factors. On day 55, the monkeys were euthanized by exsanguination while under deep anesthesia, and organs harvested for further analysis.
Plasma samples from all monkey groups taken on different days were analyzed by a sandwich-style ELISA assay (Affinity Biologicals Inc.) using an affinity-purified polyclonal anti-Factor 11 antibody as the capture antibody and a peroxidase-conjugated polyclonal anti-Factor 11 antibody as the detecting antibody. Monkey plasma was diluted 1:50 for the assay. Peroxidase activity was expressed by incubation with the substrate o-phenylenediamine. The color produced was quantified using a microplate reader at 490 nm and was considered to be proportional to the concentration of Factor 11 in the samples.
The results are presented in Table 147, expressed as percentage reduction relative to that of the PBS control.

human Factor 11 mRNA [2] = assay: Dose-dependent inhibition of human Factor 11 in HepG2 cells, lipofectin 2.34-75 nM (Example 5); assay type: cell-based; details: for percent inhibition of human Factor 11 mRNA relative to untreated control cells: ~16 hours
Procedure: Cells were plated at a density of 10,000 cells per well and transfected using lipofectin reagent with 2.34 nM, 4.69 nM, 9.375 nM, 18.75 nM, 37.5 nM, and 75 nM concentrations of antisense oligonucleotide, as specified in Table 11. After a treatment period of approximately 16 hours, RNA was isolated from the cells and human Factor 11 mRNA levels were measured by quantitative real-time PCR. Human Factor 11 primer probe set RTS 2966 was used to measure mRNA levels. Factor 11 mRNA levels were adjusted according to total RNA content, as measured by RIBOGREEN. Results are presented as percent inhibition of human Factor 11, relative to untreated control cells.

human Factor 11 mRNA [3] = assay: Dose-dependent inhibition of human Factor 11 in HepB3 cells, electroporation (Example 7); assay type: cell-based; details: for percent inhibition of human Factor 11 mRNA relative to untreated control cells: ~16 hours
Procedure: The gapmers were also transfected via electroporation and their dose dependent inhibition of human Factor 11 mRNA was measured. Cells were plated at a density of 20,000 cells per well and transfected via electroporation with 41.15 nM, 123.457 nM, 370.37 nM, 1111.11 nM, 3333.33 nM, and 10,000 nM concentrations of antisense oligonucleotide, as specified in Table 15. After a treatment period of approximately 16 hours, RNA was isolated from the cells and human Factor 11 mRNA levels were measured by quantitative real-time PCR. Human Factor 11 primer probe set RTS 2966 was used to measure mRNA levels. Factor 11 mRNA levels were adjusted according to total RNA content, as measured by RIBOGREEN. Results are presented as percent inhibition of human Factor 11, relative to untreated control cells.

| Substance | Concentration [1] | Viscosity [1] | Inhibition of Factor 11 protein relative to the PBS control (percentage reduction) (Factor 11 protein; Day 10, plasma) [%] | Inhibition of Factor 11 protein relative to the PBS control (percentage reduction) (Factor 11 protein; Day 17, plasma) [%] | Inhibition of Factor 11 protein relative to the PBS control (percentage reduction) (Factor 11 protein; Day 24, plasma) [%] | Inhibition of Factor 11 protein relative to the PBS control (percentage reduction) (Factor 11 protein; Day 31, plasma) [%] | Inhibition of Factor 11 protein relative to the PBS control (percentage reduction) (Factor 11 protein; Day 38, plasma) [%] | Inhibition of Factor 11 protein relative to the PBS control (percentage reduction) (Factor 11 protein; Day 45, plasma) [%] | Inhibition of Factor 11 protein relative to the PBS control (percentage reduction) (Factor 11 protein; Day 52, plasma) [%] | Inhibition of Factor 11 protein relative to the PBS control (percentage reduction) (Factor 11 protein; Day 55, plasma) [%] | Inhibition of Factor 11 protein relative to the PBS control (percentage reduction) (Factor 11 protein; Day −5, plasma) [%] | Inhibition of Factor 11 protein relative to the PBS control (percentage reduction) (Factor 11 protein; Day −14, plasma) [%] | IC50 (human Factor 11 mRNA [2]) [nM] | percent inhibition of human Factor 11 mRNA relative to untreated control cells (human Factor 11 mRNA [2]; 2.34 nM) [%] | percent inhibition of human Factor 11 mRNA relative to untreated control cells (human Factor 11 mRNA [2]; 4.69 nM) [%] | percent inhibition of human Factor 11 mRNA relative to untreated control cells (human Factor 11 mRNA [2]; 9.375 nM) [%] | percent inhibition of human Factor 11 mRNA relative to untreated control cells (human Factor 11 mRNA [2]; 18.75 nM) [%] | percent inhibition of human Factor 11 mRNA relative to untreated control cells (human Factor 11 mRNA [2]; 37.5 nM) [%] | percent inhibition of human Factor 11 mRNA relative to untreated control cells (human Factor 11 mRNA [2]; 75 nM) [%] | IC50 (human Factor 11 mRNA [3]) [nM] | other results |
| --- | --- | --- | --- | --- | --- | --- | --- | --- | --- | --- | --- | --- | --- | --- | --- | --- | --- | --- | --- | --- | --- |
| 412223 (antisense ACAGTTTCTGGCAGGCCTCG; 5-10-5 MOE gapmer, further chemistry not given here) [compound 412223] | 163 mg/mL | 8 cP | – | – | – | – | – | – | – | – | – | – | – | – | – | – | – | – | – | – | – |
| 412224 (antisense GCATTGGTGCACAGTTTCTG; 5-10-5 MOE gapmer, further chemistry not given here) [compound 412224] | 186 mg/mL | 98 cP | – | – | – | – | – | – | – | – | – | – | – | – | – | – | – | – | – | – | – |
| 412225 (antisense GCAGCGGACGGCATTGGTGC; 5-10-5 MOE gapmer, further chemistry not given here) [compound 412225] | 162 mg/mL | >100 cP | – | – | – | – | – | – | – | – | – | – | – | – | – | – | – | – | – | – | – |
| 413482 (antisense GGACGGCATTGGTGCACAGT; 5-10-5 MOE gapmer, further chemistry not given here) [compound 413482] | 172 mg/mL | 16. cP | – | – | – | – | – | – | – | – | – | – | – | – | – | – | – | – | – | – | – |
| 416850 (antisense TGCACAGTTTCTGGCAGGCC; 5-10-5 gapmer, further chemistry not given here) [compound 416850] | 152 mg/mL | 67 cP | 20 | 31 | 38 | 52 | 51 | 53 | 53 | 58 | 0 | 0 | 13 | 24 | 31 | 49 | 55 | 70 | 77 | 300 | percent inhibition of human Factor 11 mRNA relative to untreated control cells (human Factor 11 mRNA [3]; 41.15 nM): 26%; percent inhibition of human Factor 11 mRNA relative to untreated control cells (human Factor 11 mRNA [3]; 123.457 nM): 38%; percent inhibition of human Factor 11 mRNA relative to untreated control cells (human Factor 11 mRNA [3]; 370.37 nM): 51%; percent inhibition of human Factor 11 mRNA relative to untreated control cells (human Factor 11 mRNA [3]; 1111.11 nM): 73%; percent inhibition of human Factor 11 mRNA relative to untreated control cells (human Factor 11 mRNA [3]; 3333.33 nM): 90%; percent inhibition of human Factor 11 mRNA relative to untreated control cells (human Factor 11 mRNA [3]; 10000 nM): 95% |
| 416856 (antisense GGCATTGGTGCACAGTTTCT; 5-10-5 gapmer, further chemistry not given here) [compound 416856] | 175 mg/mL | 18 cP | – | – | – | – | – | – | – | – | – | – | – | – | – | – | – | – | – | – | – |
| 417002 (antisense GGTGCACAGTTTCTGGCAGG; 2-13-5 gapmer chemistry, further chemistry not given here) [compound 417002] | – | – | – | – | – | – | – | – | – | – | – | – | 12 | 17 | 26 | 49 | 61 | 81 | 84 | 1200 | percent inhibition of human Factor 11 mRNA relative to untreated control cells (human Factor 11 mRNA [3]; 41.15 nM): 19%; percent inhibition of human Factor 11 mRNA relative to untreated control cells (human Factor 11 mRNA [3]; 123.457 nM): 0%; percent inhibition of human Factor 11 mRNA relative to untreated control cells (human Factor 11 mRNA [3]; 370.37 nM): 31%; percent inhibition of human Factor 11 mRNA relative to untreated control cells (human Factor 11 mRNA [3]; 1111.11 nM): 47%; percent inhibition of human Factor 11 mRNA relative to untreated control cells (human Factor 11 mRNA [3]; 3333.33 nM): 86%; percent inhibition of human Factor 11 mRNA relative to untreated control cells (human Factor 11 mRNA [3]; 10000 nM): 93% |
| 417003 (antisense TGGTGCACAGTTTCTGGCAG; 2-13-5 gapmer chemistry, further chemistry not given here) [compound 417003] | – | – | – | – | – | – | – | – | – | – | – | – | 11 | 6 | 29 | 48 | 64 | 73 | 82 | 1500 | percent inhibition of human Factor 11 mRNA relative to untreated control cells (human Factor 11 mRNA [3]; 41.15 nM): 31%; percent inhibition of human Factor 11 mRNA relative to untreated control cells (human Factor 11 mRNA [3]; 123.457 nM): 0%; percent inhibition of human Factor 11 mRNA relative to untreated control cells (human Factor 11 mRNA [3]; 370.37 nM): 15%; percent inhibition of human Factor 11 mRNA relative to untreated control cells (human Factor 11 mRNA [3]; 1111.11 nM): 43%; percent inhibition of human Factor 11 mRNA relative to untreated control cells (human Factor 11 mRNA [3]; 3333.33 nM): 84%; percent inhibition of human Factor 11 mRNA relative to untreated control cells (human Factor 11 mRNA [3]; 10000 nM): 92% |
| 445522 (antisense eG*e[5mC]*eA*e[5mC]*eA*dG*dT*dT*dT*d[5mC]*dT*dG*dG*e[5mC]*eA*eG*eG*e[5mC]) [compound 445522] | 173 mg/mL and 174 mg/mL | 63 cP and 58 cP | 36 | 50 | 61 | 70 | 73 | 77 | 80 | 82 | 0 | 2 | – | – | – | – | – | – | – | – | – |
| 445531 (antisense eG*eG*e[5mC]*eA*eT*dT*dG*dG*dT*dG*d[5mC]*dA*d[5mC]*eA*eG*eT*eT*eT) [compound 445531] | 155 mg/mL and 179 mg/mL | 15 cP and 20 cP | 9 | 22 | 23 | 27 | 29 | 32 | 32 | 37 | 1 | 0 | – | – | – | – | – | – | – | – | – |

Reference: patent US20230263822A1, “MODULATION OF FACTOR 11 EXPRESSION” (Ionis Pharmaceuticals, Inc., priority 2008, published 2023)
